Assay results from patent publication US20090088461A1, “Methods of Treating or Preventing Cardiac Disease Associated With a High Fat Diet” (Synvista Therapeutics, Inc., priority 2007, published 2009).
Entries after “also recorded” stand apart in the source; their conditions may differ.

Columns and labels:
Type in all cases: in vivo
[1] = tested on: myocardial inflammation (IL-6, TNF α, ICAM-1, MCP-1, NF-κBp65); assay: Assessment of myocardial inflammation in HF-fed mice; conditions: HF diet, real time RT-PCR
Text: Adult (8-week-old) male […] mice (Precinct Animal Centre, Melbourne, Australia) and RAGE knockout (KO) mice^17 ([…] al., J Clin Invest. 113:1641-50, 2004) were housed in a temperature-controlled room on a 12-h light-dark cycle. Mice were placed on either a standard diet (AIN-93G; Specialty feeds, Perth AUS; n=10/group) or a high fat (HF) diet formulated to mimic a “Western fast food diet”, (SF05-031, Specialty Feeds; n=10). Both diets contained the same vitamin and calorie content. […] Animals receiving a HF diet were further randomized to receive alagebrium chloride at a dose of 1 mg/kg/day delivered by oral gavage. All groups were followed for 16 weeks. The expression of inflammatory cytokines, tumor necrosis factor (TNFα), interleukin-6 (IL-6), along with macrophage infiltration, is augmented following cardiac stress. The gene expression of IL-6, TNF α, the adhesion molecule, ICAM-1 and the chemokine, […] (MCP-1) in left ventricular homogenates were assessed by real-time quantitative RT-PCR. The myocardial expression of IL-6 protein was further quantitated by ELISA.

[2] = tested on: PPARα, CD36, intra-myocardial triacylglycerol; assay: Assessment of lipid metabolism in HF-fed mice; conditions: for Gene expression PPAR alpha: HF diet, real time RT-PCR
Text: Adult (8-week-old) male […] mice (Precinct Animal Centre, Melbourne, Australia) and RAGE knockout (KO) mice^17 ([…] al., J Clin Invest. 113:1641-50, 2004) were housed in a temperature-controlled room on a 12-h light-dark cycle. Mice were placed on either a standard diet (AIN-93G; Specialty feeds, Perth AUS; n=10/group) or a high fat (HF) diet formulated to mimic a “Western fast food diet”, (SF05-031, Specialty Feeds; n=10). Both diets contained the same vitamin and calorie content. […] Animals receiving a HF diet were further randomized to receive alagebrium chloride at a dose of 1 mg/kg/day delivered by oral gavage. All groups were followed for 16 weeks. Changes in myocardial energy metabolism, due to altered substrate handling, characterize obesity-related cardiac disease^5 (Boudina and Abel, Circulation 115:3213-23, 2007). In particular, intra-myocardial accumulation of triacylglycerol metabolites mediated by activation of peroxisome proliferator activated receptor α(PPARα) has been strongly associated with cardiac dysfunction in rodents fed a HF diet^20 (Ouwens et al., Diabetologia 48:1229-37, 2005). To assess the interaction of AGE/RAGE with lipotoxicity pathways in this model, the ventricular expression of PPARα and the fatty acid translocase, CD36, were assessed by real-time quantitative RT-PCR. Intra-myocardial accumulation of triacylglycerol metabolites was assessed by staining with Oil red-O in frozen cardiac sections and quantitated in cardiac homogenates extracted using the method of Bligh and Dyer and measured using a standard commercial enzymatic assay.

[3] = tested on: superoxide production in left ventricular homogenates (gp91^phox, RAC-1, heme oxygenase); assay: Assessment of superoxide production in HF-fed mice
Text: Adult (8-week-old) male […] mice (Precinct Animal Centre, Melbourne, Australia) and RAGE knockout (KO) mice^17 ([…] al., J Clin Invest. 113:1641-50, 2004) were housed in a temperature-controlled room on a 12-h light-dark cycle. Mice were placed on either a standard diet (AIN-93G; Specialty feeds, Perth AUS; n=10/group) or a high fat (HF) diet formulated to mimic a “Western fast food diet”, (SF05-031, Specialty Feeds; n=10). Both diets contained the same vitamin and calorie content. […] Animals receiving a HF diet were further randomized to receive alagebrium chloride at a dose of 1 mg/kg/day delivered by oral gavage. All groups were followed for 16 weeks. The production and accumulation of superoxide and other ROS is a key mediator of […] injury and cellular dysfunction associated with high fat feeding^5 (Boudina and Abel, Circulation 115:3213-23, 2007). […] Following incubation for 60 min at 37° C., before the rate of superoxide anion formation was determined by the addition of 3.8 μM lucigenin (bis-N-methylacridinium nitrate). […] The expression of the NADPH subunits, NOX-2 (gp91^phox), p47^phox, NOX-4 and RAC-1 in left ventricular homogenates, along with the expression of heme oxygenase (HO) and glutathione peroxidase (GPX), key defence mechanism against oxidative stress, were further assessed by real-time quantitative RT-PCR, as detailed above.

Q: What does the source list for `Cc1sc[n+](CC(=O)c2ccccc2)c1C.[Cl-]` [alagebrium chloride, 3-(2-phenyl-2-oxoethyl)-4,5-dimethylthiazolium chloride]?
A: Gene expression ICAM-1 (%) ([1]; RAGE KO mice): reduced; Gene expression Interleukin-6 (%) ([1]; RAGE KO mice): no significant effect; Gene expression MCP-1 (%) ([1]; RAGE KO mice): reduced; Gene expression P-65 (%) ([1]; RAGE KO mice): 0.3 ± 0.1 AU/18s; Gene expression TNF-alpha (%) ([1]; RAGE KO mice): no significant effect; Gene expression ICAM-1 (%) ([1]; RAGE KO mice, listed as AL): 0.2 ± 0.1 AU/18s; Gene expression Interleukin-6 (%) ([1]; RAGE KO mice, listed as AL): 0.4 ± 0.1 AU/18s; Gene expression MCP-1 (%) ([1]; RAGE KO mice, listed as AL): 0.2 ± 0.1 AU/18s; Gene expression TNF-alpha (%) ([1]; RAGE KO mice, listed as AL): 0.4 ± 0.1 AU/18s; Gene expression ICAM-1 (%) ([1]; Wild-type mice): reduced; also recorded: prevented; Gene expression Interleukin-6 (%) ([1]; Wild-type mice): reduced; also recorded: prevented; Gene expression MCP-1 (%) ([1]; Wild-type mice): reduced; Gene expression TNF-alpha (%) ([1]; Wild-type mice): reduced; also recorded: prevented; Gene expression ICAM-1 (%) ([1]; Wild-type mice, listed as AL): 0.2 ± 0.1 AU/18s; Gene expression Interleukin-6 (%) ([1]; Wild-type mice, listed as AL): 0.2 ± 0.1 AU/18s; Gene expression MCP-1 (%) ([1]; Wild-type mice, listed as AL): 0.4 ± 0.1 AU/18s; Gene expression P-65 (%) ([1]; Wild-type mice, listed as AL): 0.8 ± 0.2 AU/18s; Gene expression TNF-alpha (%) ([1]; Wild-type mice, listed as AL): 0.5 ± 0.2 AU/18s; Gene expression P-65 (%) ([1]; Wild-type mice, listed as alagebirum chloride): prevented; intramyocardial accumulation of lipid (Oil-red O staining, cardiac triglyceride content) ([2]; HF-fed mice (FIG. 1)): unaffected; Expression of the fatty acid translocase, CD36 ([2]; HF-fed mice, RT-PCR): similar; Gene expression PPAR alpha ([2]; RAGE KO mice): reduced; Gene expression PPAR alpha ([2]; RAGE KO mice, listed as AL): 1.2 ± 0.3 AU/18s; Gene expression PPAR alpha ([2]; Wild-type mice): reduced; Gene expression PPAR alpha ([2]; Wild-type mice, listed as AL): 1.9 ± 0.4 AU/18s; Gene expression relative to 18S (AU/18s) ([3]; RAGE KO mice, HF diet, real time RT-PCR, listed as AL): 0.1 ± 0.1 AU/18s; NADH-dependent (mitochondrial) superoxide production in cardiac homogenates ([3]; both wild type and RAGE KO mice, HF diet (FIG. 4)): significantly reduced
